# Experimental data published in the OligoGym collection.
# Oligonucleotides are given in HELM: sugar(base)linkage, 5' to 3'; d 2'-deoxyribose, r ribose, m 2'-O-methylribose, p phosphate. ss, as = sense and antisense strand
# Molecular target: UBE2D3
# Assay: reporter assay of Huesken 2005
# Conditions: siRNA
# Further: test concentration or dose not given here.
row,Substance,normalised inhibition (eCFP-eYFP dual reporter) [%]
1,RNA1{r(A)p.r(A)p.r(U)p.r(G)p.r(A)p.r(C)p.r(A)p.r(G)p.r(C)p.r(C)p.r(C)p.r(A)p.r(U)p.r(A)p.r(U)p.r(C)p.r(A)p.r(A)p.r(G)p.d(T)p.d(T)}|RNA2{r(C)p.r(U)p.r(U)p.r(G)p.r(A)p.r(U)p.r(A)p.r(U)p.r(G)p.r(G)p.r(G)p.r(C)p.r(U)p.r(G)p.r(U)p.r(C)p.r(A)p.r(U)p.r(U)p.d(A)p.d(G)}$$$RNA1{StrandType:ss}|RNA2{StrandType:as}$,80
2,RNA1{r(A)p.r(A)p.r(U)p.r(U)p.r(C)p.r(A)p.r(U)p.r(U)p.r(U)p.r(U)p.r(C)p.r(C)p.r(U)p.r(A)p.r(C)p.r(A)p.r(G)p.r(A)p.r(C)p.d(T)p.d(T)}|RNA2{r(G)p.r(U)p.r(C)p.r(U)p.r(G)p.r(U)p.r(A)p.r(G)p.r(G)p.r(A)p.r(A)p.r(A)p.r(A)p.r(U)p.r(G)p.r(A)p.r(A)p.r(U)p.r(U)p.d(G)p.d(T)}$$$RNA1{StrandType:ss}|RNA2{StrandType:as}$,62.3
3,RNA1{r(A)p.r(C)p.r(A)p.r(A)p.r(U)p.r(U)p.r(C)p.r(A)p.r(U)p.r(U)p.r(U)p.r(U)p.r(C)p.r(C)p.r(U)p.r(A)p.r(C)p.r(A)p.r(G)p.d(T)p.d(T)}|RNA2{r(C)p.r(U)p.r(G)p.r(U)p.r(A)p.r(G)p.r(G)p.r(A)p.r(A)p.r(A)p.r(A)p.r(U)p.r(G)p.r(A)p.r(A)p.r(U)p.r(U)p.r(G)p.r(U)p.d(C)p.d(A)}$$$RNA1{StrandType:ss}|RNA2{StrandType:as}$,76.2
4,RNA1{r(A)p.r(C)p.r(G)p.r(G)p.r(A)p.r(U)p.r(C)p.r(U)p.r(A)p.r(U)p.r(A)p.r(A)p.r(A)p.r(A)p.r(C)p.r(A)p.r(G)p.r(A)p.r(C)p.d(T)p.d(T)}|RNA2{r(G)p.r(U)p.r(C)p.r(U)p.r(G)p.r(U)p.r(U)p.r(U)p.r(U)p.r(A)p.r(U)p.r(A)p.r(G)p.r(A)p.r(U)p.r(C)p.r(C)p.r(G)p.r(U)p.d(G)p.d(C)}$$$RNA1{StrandType:ss}|RNA2{StrandType:as}$,68.3
5,RNA1{r(A)p.r(C)p.r(U)p.r(A)p.r(C)p.r(C)p.r(C)p.r(C)p.r(U)p.r(U)p.r(C)p.r(A)p.r(A)p.r(A)p.r(C)p.r(C)p.r(A)p.r(C)p.r(C)p.d(T)p.d(T)}|RNA2{r(G)p.r(G)p.r(U)p.r(G)p.r(G)p.r(U)p.r(U)p.r(U)p.r(G)p.r(A)p.r(A)p.r(G)p.r(G)p.r(G)p.r(G)p.r(U)p.r(A)p.r(G)p.r(U)p.d(C)p.d(T)}$$$RNA1{StrandType:ss}|RNA2{StrandType:as}$,63.1
6,RNA1{r(A)p.r(G)p.r(C)p.r(A)p.r(C)p.r(A)p.r(A)p.r(U)p.r(G)p.r(U)p.r(U)p.r(C)p.r(U)p.r(G)p.r(C)p.r(A)p.r(G)p.r(G)p.r(U)p.d(T)p.d(T)}|RNA2{r(A)p.r(C)p.r(C)p.r(U)p.r(G)p.r(C)p.r(A)p.r(G)p.r(A)p.r(A)p.r(C)p.r(A)p.r(U)p.r(U)p.r(G)p.r(U)p.r(G)p.r(C)p.r(U)p.d(G)p.d(G)}$$$RNA1{StrandType:ss}|RNA2{StrandType:as}$,102
7,RNA1{r(A)p.r(G)p.r(C)p.r(A)p.r(U)p.r(U)p.r(U)p.r(G)p.r(U)p.r(C)p.r(U)p.r(C)p.r(G)p.r(A)p.r(U)p.r(A)p.r(U)p.r(U)p.r(C)p.d(T)p.d(T)}|RNA2{r(G)p.r(A)p.r(A)p.r(U)p.r(A)p.r(U)p.r(C)p.r(G)p.r(A)p.r(G)p.r(A)p.r(C)p.r(A)p.r(A)p.r(A)p.r(U)p.r(G)p.r(C)p.r(U)p.d(G)p.d(C)}$$$RNA1{StrandType:ss}|RNA2{StrandType:as}$,79.2
8,RNA1{r(A)p.r(G)p.r(G)p.r(U)p.r(U)p.r(G)p.r(C)p.r(A)p.r(U)p.r(U)p.r(U)p.r(A)p.r(C)p.r(A)p.r(A)p.r(C)p.r(A)p.r(A)p.r(G)p.d(T)p.d(T)}|RNA2{r(C)p.r(U)p.r(U)p.r(G)p.r(U)p.r(U)p.r(G)p.r(U)p.r(A)p.r(A)p.r(A)p.r(U)p.r(G)p.r(C)p.r(A)p.r(A)p.r(C)p.r(C)p.r(U)p.d(T)p.d(A)}$$$RNA1{StrandType:ss}|RNA2{StrandType:as}$,86.6
9,RNA1{r(A)p.r(U)p.r(C)p.r(A)p.r(U)p.r(C)p.r(C)p.r(A)p.r(A)p.r(A)p.r(U)p.r(A)p.r(U)p.r(U)p.r(A)p.r(A)p.r(C)p.r(A)p.r(G)p.d(T)p.d(T)}|RNA2{r(C)p.r(U)p.r(G)p.r(U)p.r(U)p.r(A)p.r(A)p.r(U)p.r(A)p.r(U)p.r(U)p.r(U)p.r(G)p.r(G)p.r(A)p.r(U)p.r(G)p.r(A)p.r(U)p.d(A)p.d(A)}$$$RNA1{StrandType:ss}|RNA2{StrandType:as}$,32
10,RNA1{r(A)p.r(U)p.r(C)p.r(C)p.r(A)p.r(A)p.r(A)p.r(C)p.r(C)p.r(C)p.r(A)p.r(G)p.r(A)p.r(U)p.r(G)p.r(A)p.r(C)p.r(C)p.r(C)p.d(T)p.d(T)}|RNA2{r(G)p.r(G)p.r(G)p.r(U)p.r(C)p.r(A)p.r(U)p.r(C)p.r(U)p.r(G)p.r(G)p.r(G)p.r(U)p.r(U)p.r(U)p.r(G)p.r(G)p.r(A)p.r(U)p.d(C)p.d(A)}$$$RNA1{StrandType:ss}|RNA2{StrandType:as}$,44.5
11,RNA1{r(A)p.r(U)p.r(C)p.r(C)p.r(A)p.r(U)p.r(U)p.r(U)p.r(G)p.r(U)p.r(U)p.r(C)p.r(A)p.r(C)p.r(U)p.r(G)p.r(C)p.r(U)p.r(A)p.d(T)p.d(T)}|RNA2{r(U)p.r(A)p.r(G)p.r(C)p.r(A)p.r(G)p.r(U)p.r(G)p.r(A)p.r(A)p.r(C)p.r(A)p.r(A)p.r(A)p.r(U)p.r(G)p.r(G)p.r(A)p.r(U)p.d(A)p.d(A)}$$$RNA1{StrandType:ss}|RNA2{StrandType:as}$,96.1
12,RNA1{r(A)p.r(U)p.r(G)p.r(U)p.r(U)p.r(U)p.r(C)p.r(A)p.r(U)p.r(U)p.r(G)p.r(G)p.r(C)p.r(A)p.r(A)p.r(G)p.r(C)p.r(C)p.r(A)p.d(T)p.d(T)}|RNA2{r(U)p.r(G)p.r(G)p.r(C)p.r(U)p.r(U)p.r(G)p.r(C)p.r(C)p.r(A)p.r(A)p.r(U)p.r(G)p.r(A)p.r(A)p.r(A)p.r(C)p.r(A)p.r(U)p.d(A)p.d(T)}$$$RNA1{StrandType:ss}|RNA2{StrandType:as}$,90.7
13,RNA1{r(A)p.r(U)p.r(U)p.r(A)p.r(A)p.r(C)p.r(A)p.r(G)p.r(U)p.r(A)p.r(A)p.r(U)p.r(G)p.r(G)p.r(C)p.r(A)p.r(G)p.r(C)p.r(A)p.d(T)p.d(T)}|RNA2{r(U)p.r(G)p.r(C)p.r(U)p.r(G)p.r(C)p.r(C)p.r(A)p.r(U)p.r(U)p.r(A)p.r(C)p.r(U)p.r(G)p.r(U)p.r(U)p.r(A)p.r(A)p.r(U)p.d(A)p.d(T)}$$$RNA1{StrandType:ss}|RNA2{StrandType:as}$,57.6
14,RNA1{r(A)p.r(U)p.r(U)p.r(A)p.r(U)p.r(G)p.r(G)p.r(G)p.r(A)p.r(C)p.r(C)p.r(U)p.r(A)p.r(A)p.r(U)p.r(G)p.r(A)p.r(C)p.r(A)p.d(T)p.d(T)}|RNA2{r(U)p.r(G)p.r(U)p.r(C)p.r(A)p.r(U)p.r(U)p.r(A)p.r(G)p.r(G)p.r(U)p.r(C)p.r(C)p.r(C)p.r(A)p.r(U)p.r(A)p.r(A)p.r(U)p.d(T)p.d(G)}$$$RNA1{StrandType:ss}|RNA2{StrandType:as}$,64.1
15,RNA1{r(A)p.r(U)p.r(U)p.r(U)p.r(A)p.r(C)p.r(A)p.r(A)p.r(C)p.r(A)p.r(A)p.r(G)p.r(A)p.r(A)p.r(U)p.r(U)p.r(U)p.r(A)p.r(U)p.d(T)p.d(T)}|RNA2{r(A)p.r(U)p.r(A)p.r(A)p.r(A)p.r(U)p.r(U)p.r(C)p.r(U)p.r(U)p.r(G)p.r(U)p.r(U)p.r(G)p.r(U)p.r(A)p.r(A)p.r(A)p.r(U)p.d(G)p.d(C)}$$$RNA1{StrandType:ss}|RNA2{StrandType:as}$,74.4
16,RNA1{r(A)p.r(U)p.r(U)p.r(U)p.r(A)p.r(U)p.r(C)p.r(A)p.r(U)p.r(C)p.r(C)p.r(A)p.r(A)p.r(A)p.r(U)p.r(A)p.r(U)p.r(U)p.r(A)p.d(T)p.d(T)}|RNA2{r(U)p.r(A)p.r(A)p.r(U)p.r(A)p.r(U)p.r(U)p.r(U)p.r(G)p.r(G)p.r(A)p.r(U)p.r(G)p.r(A)p.r(U)p.r(A)p.r(A)p.r(A)p.r(U)p.d(T)p.d(C)}$$$RNA1{StrandType:ss}|RNA2{StrandType:as}$,76.2
17,RNA1{r(C)p.r(A)p.r(A)p.r(G)p.r(A)p.r(A)p.r(U)p.r(U)p.r(U)p.r(A)p.r(U)p.r(C)p.r(A)p.r(U)p.r(C)p.r(C)p.r(A)p.r(A)p.r(A)p.d(T)p.d(T)}|RNA2{r(U)p.r(U)p.r(U)p.r(G)p.r(G)p.r(A)p.r(U)p.r(G)p.r(A)p.r(U)p.r(A)p.r(A)p.r(A)p.r(U)p.r(U)p.r(C)p.r(U)p.r(U)p.r(G)p.d(T)p.d(T)}$$$RNA1{StrandType:ss}|RNA2{StrandType:as}$,93.1
18,RNA1{r(C)p.r(A)p.r(A)p.r(G)p.r(C)p.r(C)p.r(A)p.r(C)p.r(A)p.r(A)p.r(U)p.r(U)p.r(A)p.r(U)p.r(G)p.r(G)p.r(G)p.r(A)p.r(C)p.d(T)p.d(T)}|RNA2{r(G)p.r(U)p.r(C)p.r(C)p.r(C)p.r(A)p.r(U)p.r(A)p.r(A)p.r(U)p.r(U)p.r(G)p.r(U)p.r(G)p.r(G)p.r(C)p.r(U)p.r(U)p.r(G)p.d(C)p.d(C)}$$$RNA1{StrandType:ss}|RNA2{StrandType:as}$,35.2
19,RNA1{r(C)p.r(A)p.r(A)p.r(G)p.r(G)p.r(C)p.r(G)p.r(G)p.r(U)p.r(G)p.r(U)p.r(A)p.r(U)p.r(U)p.r(C)p.r(U)p.r(U)p.r(U)p.r(U)p.d(T)p.d(T)}|RNA2{r(A)p.r(A)p.r(A)p.r(A)p.r(G)p.r(A)p.r(A)p.r(U)p.r(A)p.r(C)p.r(A)p.r(C)p.r(C)p.r(G)p.r(C)p.r(C)p.r(U)p.r(U)p.r(G)p.d(A)p.d(T)}$$$RNA1{StrandType:ss}|RNA2{StrandType:as}$,104
20,RNA1{r(C)p.r(A)p.r(A)p.r(U)p.r(U)p.r(U)p.r(C)p.r(U)p.r(A)p.r(A)p.r(A)p.r(G)p.r(U)p.r(U)p.r(C)p.r(U)p.r(U)p.r(U)p.r(U)p.d(T)p.d(T)}|RNA2{r(A)p.r(A)p.r(A)p.r(A)p.r(G)p.r(A)p.r(A)p.r(C)p.r(U)p.r(U)p.r(U)p.r(A)p.r(G)p.r(A)p.r(A)p.r(A)p.r(U)p.r(U)p.r(G)p.d(T)p.d(T)}$$$RNA1{StrandType:ss}|RNA2{StrandType:as}$,80.6
